This note sets out measurements from ChEMBL document CHEMBL1201862, “PubChem BioAssay data set” (2004).

Assay type in all cases: functional
One assay has as its target T1, Caspase-3 (Homo sapiens, UniProt P42574).
T1 sequence (P42574 whole entry): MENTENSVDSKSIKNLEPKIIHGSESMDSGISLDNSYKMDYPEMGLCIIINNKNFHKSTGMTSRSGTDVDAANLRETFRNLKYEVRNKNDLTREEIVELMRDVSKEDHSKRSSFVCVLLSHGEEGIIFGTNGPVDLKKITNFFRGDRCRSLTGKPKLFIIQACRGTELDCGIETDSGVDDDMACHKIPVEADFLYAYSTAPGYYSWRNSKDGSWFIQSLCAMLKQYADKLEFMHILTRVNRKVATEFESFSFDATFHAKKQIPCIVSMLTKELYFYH
In words: SAR Analysis of small molecule inhibitors of Sentrin-specific proteases (SENPs) using a Caspase-3 Selectivity assay. [Related pubchem assays (depositor defined):AID2540, AID2599, AID434973, AID489001].

In assay [1] the target is T2, Sentrin-specific protease 6 (Homo sapiens, UniProt Q9GZR1).
T2 sequence (Q9GZR1 whole entry): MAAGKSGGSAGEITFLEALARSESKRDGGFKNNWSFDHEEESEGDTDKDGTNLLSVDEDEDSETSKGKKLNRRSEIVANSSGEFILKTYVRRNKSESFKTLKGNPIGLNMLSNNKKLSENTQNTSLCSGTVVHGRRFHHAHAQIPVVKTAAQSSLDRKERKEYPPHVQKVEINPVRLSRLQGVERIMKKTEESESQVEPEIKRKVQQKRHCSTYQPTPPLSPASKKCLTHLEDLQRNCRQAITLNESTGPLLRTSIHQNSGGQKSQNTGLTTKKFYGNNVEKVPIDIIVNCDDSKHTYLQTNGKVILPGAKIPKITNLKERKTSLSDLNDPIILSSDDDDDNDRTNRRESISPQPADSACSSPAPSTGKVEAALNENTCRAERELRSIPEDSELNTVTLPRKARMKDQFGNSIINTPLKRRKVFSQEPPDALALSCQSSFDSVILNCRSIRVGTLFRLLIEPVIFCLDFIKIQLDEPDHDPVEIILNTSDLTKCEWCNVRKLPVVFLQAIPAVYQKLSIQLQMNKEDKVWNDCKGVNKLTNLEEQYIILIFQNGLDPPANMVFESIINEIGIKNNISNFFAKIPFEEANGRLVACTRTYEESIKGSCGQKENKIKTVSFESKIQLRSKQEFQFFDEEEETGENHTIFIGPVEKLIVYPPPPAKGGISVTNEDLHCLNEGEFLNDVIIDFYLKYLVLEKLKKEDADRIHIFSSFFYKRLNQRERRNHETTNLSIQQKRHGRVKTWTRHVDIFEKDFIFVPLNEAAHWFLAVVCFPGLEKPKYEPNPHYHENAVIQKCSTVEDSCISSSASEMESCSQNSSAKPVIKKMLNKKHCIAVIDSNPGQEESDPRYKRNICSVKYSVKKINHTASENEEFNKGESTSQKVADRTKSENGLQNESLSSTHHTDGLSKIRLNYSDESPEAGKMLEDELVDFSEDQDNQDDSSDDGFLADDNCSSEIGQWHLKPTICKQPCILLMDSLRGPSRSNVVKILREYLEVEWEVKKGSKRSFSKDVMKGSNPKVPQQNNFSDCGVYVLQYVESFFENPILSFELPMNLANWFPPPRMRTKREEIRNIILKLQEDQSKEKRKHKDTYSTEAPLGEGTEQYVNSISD
In words: SAR Analysis of small molecule inhibitors of Sentrin-specific protease 6 (SENP6) using a Luminescent assay. [Related pubchem assays (depositor defined):AID2582, AID2599].

The target of assay [2] is T3, Sentrin-specific protease 7 (Homo sapiens, UniProt Q9BQF6).
T3 sequence (Q9BQF6 whole entry): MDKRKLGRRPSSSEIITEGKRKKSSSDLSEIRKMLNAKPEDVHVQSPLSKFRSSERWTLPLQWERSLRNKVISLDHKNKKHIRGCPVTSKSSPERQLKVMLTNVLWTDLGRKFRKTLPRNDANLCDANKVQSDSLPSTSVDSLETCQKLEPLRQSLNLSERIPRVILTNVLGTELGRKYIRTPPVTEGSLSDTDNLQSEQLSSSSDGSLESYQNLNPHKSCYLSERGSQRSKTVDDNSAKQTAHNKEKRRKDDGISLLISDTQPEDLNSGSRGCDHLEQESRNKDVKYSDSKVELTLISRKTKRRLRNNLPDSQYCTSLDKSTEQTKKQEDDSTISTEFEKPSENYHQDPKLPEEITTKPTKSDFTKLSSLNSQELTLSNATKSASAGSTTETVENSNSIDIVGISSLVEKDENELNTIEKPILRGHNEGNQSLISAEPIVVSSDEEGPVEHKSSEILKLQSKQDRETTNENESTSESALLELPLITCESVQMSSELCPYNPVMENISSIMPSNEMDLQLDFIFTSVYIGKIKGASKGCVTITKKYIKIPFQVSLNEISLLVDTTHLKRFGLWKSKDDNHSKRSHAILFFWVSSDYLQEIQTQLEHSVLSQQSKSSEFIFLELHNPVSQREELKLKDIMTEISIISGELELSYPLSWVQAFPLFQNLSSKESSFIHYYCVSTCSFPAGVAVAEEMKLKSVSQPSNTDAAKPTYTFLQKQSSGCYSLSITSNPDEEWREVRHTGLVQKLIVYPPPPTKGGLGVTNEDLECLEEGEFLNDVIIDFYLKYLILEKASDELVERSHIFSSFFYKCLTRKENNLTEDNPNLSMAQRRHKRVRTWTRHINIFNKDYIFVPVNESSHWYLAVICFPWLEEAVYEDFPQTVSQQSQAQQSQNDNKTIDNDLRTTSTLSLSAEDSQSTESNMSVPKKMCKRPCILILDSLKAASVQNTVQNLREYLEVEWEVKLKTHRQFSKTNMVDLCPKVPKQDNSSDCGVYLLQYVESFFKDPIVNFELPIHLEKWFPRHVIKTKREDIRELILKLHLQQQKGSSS
In words: inhibition of human SENP7 cleavage activity – biochemical, luminescence, SAR follow-up (AID 504497).

In assay [3] the target is Nucleotide-binding oligomerization domain-containing protein 2 (Homo sapiens, UniProt Q9HC29). In words: inhibition of NOD2-driven NF-kB reporter – cell-based, luminescence, uHTS, HEK293 (AID 1566).
Another assay deals with Mu-type opioid receptor (Homo sapiens, UniProt P35372). In words: Counterscreen for agonists of heterodimerization of the mu 1 (OPRM1) and delta 1 (OPRD1) opioid receptors: Luminescence-based cell-based high throughput dose response assay to identify agonists of OPRM1 homodimerization.
The target of assay [4] is Polyadenylate-binding protein 1 (Homo sapiens, UniProt P11940). Description: MLLE domain peptide-binding blockers, IC50 – biochemical, fluorescence polarization, FITC-PAM2 peptide, dose response (AID 602259). To be noted: read-out: IC50_Mean.

Calls of active or inactive are those of the source.

Chain of Nucleotide-binding oligomerization domain-containing protein 2 (Q9HC29 whole entry, the tested form may be a part): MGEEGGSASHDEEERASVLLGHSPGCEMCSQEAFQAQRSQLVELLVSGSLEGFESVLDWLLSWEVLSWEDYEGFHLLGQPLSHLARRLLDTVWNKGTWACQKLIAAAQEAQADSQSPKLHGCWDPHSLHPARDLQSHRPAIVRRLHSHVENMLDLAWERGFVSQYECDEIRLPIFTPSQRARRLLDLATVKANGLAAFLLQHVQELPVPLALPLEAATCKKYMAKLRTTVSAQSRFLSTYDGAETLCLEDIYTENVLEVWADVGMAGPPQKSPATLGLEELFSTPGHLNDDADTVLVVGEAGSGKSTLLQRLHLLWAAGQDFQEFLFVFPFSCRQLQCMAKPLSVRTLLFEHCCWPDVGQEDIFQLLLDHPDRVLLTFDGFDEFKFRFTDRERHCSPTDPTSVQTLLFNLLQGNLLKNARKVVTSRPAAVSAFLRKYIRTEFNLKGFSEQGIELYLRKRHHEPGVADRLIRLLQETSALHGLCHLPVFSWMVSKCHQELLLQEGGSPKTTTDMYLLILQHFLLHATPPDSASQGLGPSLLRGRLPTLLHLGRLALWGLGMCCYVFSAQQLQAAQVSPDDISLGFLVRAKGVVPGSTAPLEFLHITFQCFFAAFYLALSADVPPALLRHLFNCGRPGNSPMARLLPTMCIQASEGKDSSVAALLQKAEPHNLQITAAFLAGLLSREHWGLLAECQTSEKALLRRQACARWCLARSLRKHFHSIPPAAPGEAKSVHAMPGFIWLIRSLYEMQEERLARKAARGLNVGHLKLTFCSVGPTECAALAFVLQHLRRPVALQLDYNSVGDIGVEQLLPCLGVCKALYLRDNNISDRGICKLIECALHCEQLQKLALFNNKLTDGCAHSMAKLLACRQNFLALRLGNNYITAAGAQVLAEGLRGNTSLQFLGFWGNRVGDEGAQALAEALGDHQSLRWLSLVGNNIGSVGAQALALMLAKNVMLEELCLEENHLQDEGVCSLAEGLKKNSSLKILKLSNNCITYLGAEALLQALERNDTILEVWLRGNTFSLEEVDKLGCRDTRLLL
Chain of Polyadenylate-binding protein 1 (P11940 whole entry, the tested form may be a part): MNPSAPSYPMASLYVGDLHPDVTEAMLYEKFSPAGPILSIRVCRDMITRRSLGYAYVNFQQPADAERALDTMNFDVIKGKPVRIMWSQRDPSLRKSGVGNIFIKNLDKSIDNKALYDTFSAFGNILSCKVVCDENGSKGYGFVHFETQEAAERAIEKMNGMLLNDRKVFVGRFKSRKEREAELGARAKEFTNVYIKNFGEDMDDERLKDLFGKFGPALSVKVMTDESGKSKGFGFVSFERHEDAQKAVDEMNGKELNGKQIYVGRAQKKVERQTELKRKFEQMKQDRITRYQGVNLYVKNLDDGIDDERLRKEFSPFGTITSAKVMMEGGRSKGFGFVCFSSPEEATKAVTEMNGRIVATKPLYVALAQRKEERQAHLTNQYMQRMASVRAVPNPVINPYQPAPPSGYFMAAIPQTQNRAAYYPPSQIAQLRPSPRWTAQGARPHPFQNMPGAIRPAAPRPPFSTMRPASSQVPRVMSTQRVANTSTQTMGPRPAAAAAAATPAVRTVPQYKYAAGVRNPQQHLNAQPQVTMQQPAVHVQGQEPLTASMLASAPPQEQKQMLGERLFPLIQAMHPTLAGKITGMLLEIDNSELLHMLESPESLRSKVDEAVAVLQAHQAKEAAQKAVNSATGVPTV
Chain of Mu-type opioid receptor (P35372 whole entry, the tested form may be a part): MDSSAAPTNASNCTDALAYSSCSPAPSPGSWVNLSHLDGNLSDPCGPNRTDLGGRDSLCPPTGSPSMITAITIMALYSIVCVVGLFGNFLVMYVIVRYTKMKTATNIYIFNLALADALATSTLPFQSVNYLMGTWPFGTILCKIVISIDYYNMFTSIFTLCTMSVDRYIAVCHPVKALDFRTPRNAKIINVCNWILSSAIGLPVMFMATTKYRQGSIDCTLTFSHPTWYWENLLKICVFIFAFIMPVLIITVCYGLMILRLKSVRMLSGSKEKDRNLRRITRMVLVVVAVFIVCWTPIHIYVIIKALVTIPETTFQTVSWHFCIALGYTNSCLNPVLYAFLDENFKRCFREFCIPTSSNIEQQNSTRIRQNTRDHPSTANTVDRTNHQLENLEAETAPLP

As to `Cc1ccc(C(=O)NNc2cc(N3CCCC3)nc(N3CCCC3)n2)cc1`, the IC50 on Caspase-3 was > 99 µM (inactive); in assay [1], 2.3 µM (active); in assay [2], 7.68 µM (active).

In general, EC50 refers to the concentration giving half of the maximal effect. On to `Cc1cc(/C=C2\SC(=S)N(C)C2=O)c(C)n1-c1ccc(O)cc1`, for which the EC50 in assay [3] is 0.57 µM (active); at Mu-type opioid receptor it was > 92.5 µM (inactive).

On to `O=C1/C(=N\c2cccc(O)c2)C(N2CCCCC2)=C(O)c2ccccc21`, for which the IC50 in assay [4] is > 66 µM (inactive).
